# Laboratory results as given in US12246022B2, “Compositions and methods for treating, preventing or reversing age associated inflammation and disorders” (BROWN UNIVERSITY, priority 2019, dated 2025).
# Read-outs that look alike come from different tables or passages of the source.
# Assays:
# [1] = Table 13 Comparative Studies; cited from earlier work
# [2] = Comparative studies: intracellular drug concentration relative to LINE-1 IC50 and huCSF/Plasma ratio; conditions: Table 13 Comparative Studies
# human LINE-1 [3] = test: Human LINE-1 retrotransposition assay, related experiments with islatravir (pYX017, HeLa cells, Tables 12 and 13); type: cell-based
# Method: In related experiments, islatravir and other compounds were tested for inhibition of retrotransposition activity of human LINE-1 in HeLa cells according to the following procedure.
# HeLa cervical cancer cells were cultivated at 37° C. in a humidified 5% CO2 incubator in Dulbecco's Modified Eagle's Medium (DMEM)—high glucose, with 4500 mg/L glucose, L-glutamine, sodium pyruvate and sodium bicarbonate (Sigma), supplemented with 10% of heat inactivated fetal bovine serum (Thermo Fisher).
# Assays were performed using reporter plasmid pYX017 as described (Xie, et al., 2011) with several modifications. The reporter assay was performed in 96-well white optical bottom plates. HeLa cells were seeded in wells 24 h prior to transfection and compound treatment so that cells were approximately 30% confluent on the day of transfection. Different cell plating densities were tested and a density of 2×10^3 cells was determined to be optimal.
# Compounds were resuspended in DMSO. Serial dilutions (1:3) were prepared in DMSO. Medium containing different concentrations of the compounds were prepared by adding 2 μl of the compound dilution to 1 ml of the culture medium. The final concentration of DMSO in the medium was 0.2%.
# FuGENE® HD transfection reagent (Promega, E2311, Lot 382574 and Lot 397842) was used to transfect the plasmids into the cells. The transfection reagent: DNA mixture was prepared in OpiMEM (Thermo Fisher) according to manufacturer's instructions. Different ratios of transfection reagent to DNA were tested and a ratio of 3:1 was determined to be optimal. Culture medium was removed from the cells and discarded. The transfection reagent: DNA mixture (5 μl) was mixed with the compound containing medium (100 μl/well) and this was added onto the cells of each well. Cells were incubated at 37° C./5% CO2 for different incubation time. A 72 h incubation time was determined to be optimal.
# Luciferase reporter activity was quantified with the Dual-Luciferase® Reporter Assay System (Promega) according to manufacturer's instructions for multiwell plates except that cells were lysed directly on the multiwell plate with 30 μl of the passive lysis buffer (PLB) for 20 min at room temperature, with gentle shaking to ensure complete cell lysis.
# Firefly and Renilla luciferase signals were measured using a SpectraMax i3x Multi-Mode Microplate Reader. Integration times of 100 ms and 10 ms were used to measure the Firefly and Renilla signals respectively. Relative L1 activity is calculated as Firefly/Renilla *1000 or Firefly/Renilla *10,000. Dose response inhibition data were fit to a four parameter logistic equation using non-linear regression (using Graphpad Prism 8), to determine IC50 values for each inhibitor.
# mouse LINE-1 = test: Mouse LINE-1 retrotransposition assay (dual luciferase pYX016 reporter, HeLa cells); type: cell-based
# Method: Elvucitabine was obtained by custom synthesis. […] HeLa cervical cancer cells were cultivated at 37° C. in a humidified 5% CO2 incubator in Dulbecco's Modified Eagle's Medium (DMEM)-high glucose, with 4500 mg/L glucose, L-glutamine, sodium pyruvate and sodium bicarbonate (Sigma), supplemented with 10% of heat inactivated fetal bovine serum (Thermo Fisher). Assays were performed as described in Xie et al., 2011^151 with several modifications. The reporter assay was performed in 96 well white Optical bottom plates. 6000 HeLa cells were seeded in each well 24 hours prior transfection and compound treatment. All compounds were resuspended in DMSO. Stock solution concentrations varied from 50 mM to 1.25 mM depending of the solubility of the compound. Serial dilutions (1:3) were prepared in DMSO. Ten different concentrations of each compound were tested in triplicate. Medium containing different concentrations of the compounds were prepared by adding 2 μL of the compound dilution to 1 mL of the culture medium. The final concentration of DMSO in the medium was 0.2%. FuGENE® HD transfection reagent (Promega) was used to transfect the plasmid pYX016 into the cells. The transfection mix was prepared in OpiMEM (Thermo Fisher) using a reagent to DNA ratio of 3.5:1 according to manufacturer's instructions. Culture medium was removed from the cells and discarded. The transfection mix (5 μL) was mixed with the compound containing medium (100 μL/well) and this was added onto the cells of each well. Cells were incubated for 48H at 37° C./5% CO2. Luciferase reporter activity was quantified with the Dual-Luciferase® Reporter Assay System (Promega) according to manufacturer's instructions for multiwell plates with the following modification: Cells were lysed directly on the multiwell plate with 30 μL of the passive lysis buffer (PLB) for 20 min at room temperature, with gentle shaking to ensure complete cell lysis (instead of 20 μL of PLB for 15 min). Firefly and Renilla luciferase signals were measured using a SpectraMax i3x Multi-Mode Microplate Reader. […] Relative L1 activity was calculated as Firefly/Renilla *10,000. […] The experiment was performed twice, independently.
# human LINE-1 [4] = test: Human LINE-1 retrotransposition assay (dual luciferase pYX017 reporter, HeLa cells, Table 11); type: cell-based
# Method: Assays were performed as described in Xie et al., 2011^151 with several modifications. The reporter assay was performed in 96 well white Optical bottom plates. 6000 HeLa cells were seeded in each well 24 hours prior transfection and compound treatment. All compounds were resuspended in DMSO. Stock solution concentrations varied from 50 mM to 1.25 mM depending of the solubility of the compound. Serial dilutions (1:3) were prepared in DMSO. Ten different concentrations of each compound were tested in triplicate. Medium containing different concentrations of the compounds were prepared by adding 2 μL of the compound dilution to 1 mL of the culture medium. The final concentration of DMSO in the medium was 0.2%. FuGENE® HD transfection reagent (Promega) was used to transfect the plasmid pYX016 into the cells. The transfection mix was prepared in OpiMEM (Thermo Fisher) using a reagent to DNA ratio of 3.5:1 according to manufacturer's instructions. Culture medium was removed from the cells and discarded. The transfection mix (5 μL) was mixed with the compound containing medium (100 μL/well) and this was added onto the cells of each well. Cells were incubated for 48H at 37° C./5% CO2. Luciferase reporter activity was quantified with the Dual-Luciferase® Reporter Assay System (Promega) according to manufacturer's instructions for multiwell plates with the following modification: Cells were lysed directly on the multiwell plate with 30 μL of the passive lysis buffer (PLB) for 20 min at room temperature, with gentle shaking to ensure complete cell lysis (instead of 20 μL of PLB for 15 min). Firefly and Renilla luciferase signals were measured using a SpectraMax i3x Multi-Mode Microplate Reader. […] Relative L1 activity was calculated as Firefly/Renilla *10,000. […] The experiment was performed twice, independently. […] Because the human construct yields a lower signal, compounds were incubated with cells for 72 hours instead of 48 hours, and cells were seeded at a density of 2000/well instead of 6000/well. In addition, the transfection reagent to DNA ratio was 2:1 instead of 3.5:1.
# [5] = in vivo; cited from earlier work
# HIV WT = conditions: read-out: IC50 for HIV (intracellular EFdA-TP); cited from earlier work
# human LINE-1 [6] = test: Islatravir Inhibitory Quotient (IQ) estimate for human LINE-1 in PBMC and brain; conditions: PBMC, intracellular EFdA-TP, used for IQ
# [7] = Homo sapiens, HeLa, Table 13 Comparative Studies, read-out: Human Line-1 IC50
# [8] = pYX016, 48 H post-transfection, read-out: Mouse L1 activity inhibition IC50, Exp. 1
# [9] = pYX016, 48 H post-transfection, read-out: Mouse L1 activity inhibition IC50, Exp. 2
# [10] = pYX016, 48 H, n = 2, read-out: Mouse L1 activity inhibition IC50, Average
# [11] = Homo sapiens, HeLa cells, pYX017, 72 h, n = 3, read-out: Human LINE-1 IC50, Average
# [12] = Homo sapiens, HeLa cells, pYX017, 72 h, read-out: Human LINE-1 IC50, Exp.1
# [13] = Homo sapiens, HeLa cells, pYX017, 72 h, read-out: Human LINE-1 IC50, Exp.2
# [14] = Homo sapiens, HeLa cells, pYX017, 72 h, read-out: Human LINE-1 IC50, Exp. 3
SMILES,IC50 (mouse LINE-1; [8]) [nM],IC50 (mouse LINE-1; [9]) [nM],IC50 (mouse LINE-1; [10]) [nM],IC50 (human LINE-1 [3]; [11]) [nM],IC50 (human LINE-1 [3]; [12]) [nM],IC50 (human LINE-1 [3]; [13]) [nM],IC50 (human LINE-1 [3]; [14]) [nM],also measured
"Nc1nc(NC2CC2)c2ncn([C@H]3C=C[C@@H](CO)C3)c2n1 [Abacavir (ABC), Abacavir]",–,–,–,–,–,–,–,huCSF/Plasma [1]: 0.67; Human Line-1 Intracellular drug conc. (% of IC-50 conc.) [2]: 106%; IC50 (human LINE-1 [3]; [7]): 17100 nM
Nc1ccn([C@H]2CO[C@@H](CO)S2)c(=O)n1 [Apricitabine],4440,3820,4130,–,–,–,–,–
O=C(NCc1c(F)cc(F)cc1F)c1cn2c(c(O)c1=O)C(=O)N1[C@H]3CC[C@H](C3)O[C@@H]1C2 [Bictegravir],–,–,–,> 12400,12400,> 50000,–,–
C#C[C@@]1(CO)C=C[C@H](n2cc(C)c(=O)[nH]c2=O)O1 [Censavudine],118,105,112,100,130,120,50,"IC50 (human LINE-1 [4]; pYX017, 72 H post-transfection, read-out: Human L1 activity inhibition IC50, Exp. 1): 53 nM; IC50 (human LINE-1 [4]; pYX017, 72 H post-transfection, read-out: Human L1 activity inhibition IC50, Exp. 2): 92 nM; IC50 (human LINE-1 [4]; pYX017, 72 H, n = 2, read-out: Human L1 activity inhibition IC50, Average): 72 nM; IC50 (human LINE-1 [4]; read-out: human L1 inhibition IC50): ~100 nM; IC50 (mouse LINE-1; read-out: mouse L1 inhibition IC50): ~100 nM"
C[C@@H]1CCO[C@H]2Cn3cc(C(=O)NCc4ccc(F)cc4F)c(=O)c(O)c3C(=O)N12 [Dolutegravir sodium],–,–,–,> 9380,9380,–,> 20000,–
C#C[C@]1(COP(=O)(O)OP(=O)(O)OP(=O)(O)O)O[C@@H](n2cnc3c(N)nc(F)nc32)C[C@@H]1O [EFdA-TP],–,–,–,–,–,–,–,intracellular T-half in human PBMC [5]: 78.5 to 128 h; IC50 (HIV WT): 49 nM; EC50 (human LINE-1 [6]): 316 nM
O=C1Nc2ccc(Cl)cc2[C@@](C#CC2CC2)(C(F)(F)F)O1 [Efavirenz],–,–,–,> 250,> 50000,> 250,–,–
Cc1nnc(C(=O)NC(C)(C)c2nc(C(=O)NCc3ccc(F)cc3)c(O)c(=O)n2C)o1 [Raltegravir potassium],–,–,–,> 9860,9860,> 50000,49300,–
Cc1cc(/C=C/C#N)cc(C)c1Nc1ccnc(Nc2ccc(C#N)cc2)n1 [Rilpivirine],–,–,–,> 15100,> 50000,15100,45500,–
Cc1cn([C@H]2C=C[C@@H](CO)O2)c(=O)[nH]c1=O [Stavudine],1590,1860,1720,–,–,–,–,huCSF/Plasma [1]: 0.2; Human Line-1 Intracellular drug conc. (% of IC-50 conc.) [2]: 63%; IC50 (human LINE-1 [3]; [7]): 750 nM
Cc1cn([C@H]2C[C@H](N=[N+]=[N-])[C@@H](CO)O2)c(=O)[nH]c1=O [Zidovudine],–,–,–,810,410,340,1680,–

# Now from value to molecule, other results behind:
IC50 (mouse LINE-1; [8]) [nM],IC50 (mouse LINE-1; [9]) [nM],IC50 (mouse LINE-1; [10]) [nM],IC50 (human LINE-1 [3]; [11]) [nM],IC50 (human LINE-1 [3]; [12]) [nM],IC50 (human LINE-1 [3]; [13]) [nM],IC50 (human LINE-1 [3]; [14]) [nM],SMILES,also measured
–,–,–,> 50000,> 50000,> 50000,–,Cc1ccnc2c1NC(=O)c1cccnc1N2C1CC1 [Nevirapine],–
157,151,154,–,–,–,–,"CC(C)OC(=O)OCOP(=O)(CO[C@H](C)Cn1cnc2c(N)ncnc21)OCOC(=O)OC(C)C [Tenofovir Disiproxil, tenofovir disoproxil]",IC50 (human LINE-1 [3]; [7]): 200 nM
3470,4020,3750,–,–,–,–,C[C@H](Cn1cnc2c(N)ncnc21)OCP(=O)(O)O [Tenofovir],"IC50 (human LINE-1 [3]; Table 13 Comparative Studies, read-out: Human Line-1 IC50): 2770 nM"
